Measured values as given in ChEMBL document CHEMBL6120963, “Discovery of Novel PROTAC SIRT6 Degraders with Potent Efficacy against Hepatocellular Carcinoma” (J Med Chem, 2024).
The source made the active and inactive calls. No cut-off for these calls is given here.

How the values were obtained:
Type in all cases: cell-based
[1] = target: T1, Protein cereblon/NAD-dependent protein deacylase sirtuin-6 (Homo sapiens, UniProt Q8N6T7+Q96SW2); experiment: PROTAC activity at CRBN/SIRT6 in human SK-HEP1 cells assessed as induction of SIRT6 degradation at 0.5 uM incubated for 36 hrs by In-Cell ELISA relative to control
[2] = target: T1, Protein cereblon/NAD-dependent protein deacylase sirtuin-6; experiment: PROTAC activity at CRBN/SIRT6 in human SK-HEP1 cells assessed as induction of SIRT6 degradation at 5 uM incubated for 36 hrs by In-Cell ELISA relative to control
[3] = target: T1, Protein cereblon/NAD-dependent protein deacylase sirtuin-6; experiment: PROTAC activity at CRBN/SIRT6 in human SK-HEP1 cells assessed as induction of SIRT6 degradation at 200 nM incubated for 36 hrs by In-Cell ELISA relative to control
[4] = target: T1, Protein cereblon/NAD-dependent protein deacylase sirtuin-6; experiment: PROTAC activity at CRBN/SIRT6 in human SK-HEP1 cells assessed as induction of SIRT6 degradation at 2 uM incubated for 36 hrs by In-Cell ELISA relative to control
[5] = target: T1, Protein cereblon/NAD-dependent protein deacylase sirtuin-6; experiment: PROTAC activity at CRBN/SIRT6 in human SK-HEP1 cells assessed as induction of SIRT6 degradation at 2 to 3 uM incubated for 36 hrs by Western blot analysis; conditions: dose 2-3 µM
[6] = target: T1, Protein cereblon/NAD-dependent protein deacylase sirtuin-6; experiment: PROTAC activity at CRBN/SIRT6 in human SK-HEP1 cells assessed as hook effect upto 5 uM incubated for 36 hrs by Western blot analysis
[7] = system: SK-HEP1; experiment: Induction of SIRT6 degradation in human SK-HEP1 cells at 0.5 uM incubated for 36 hrs by In-Cell ELISA relative to control
[8] = system: SK-HEP1; experiment: Induction of SIRT6 degradation in human SK-HEP1 cells at 5 uM incubated for 36 hrs by In-Cell ELISA relative to control

T1 sequence (Q8N6T7 2-355 limits assumed): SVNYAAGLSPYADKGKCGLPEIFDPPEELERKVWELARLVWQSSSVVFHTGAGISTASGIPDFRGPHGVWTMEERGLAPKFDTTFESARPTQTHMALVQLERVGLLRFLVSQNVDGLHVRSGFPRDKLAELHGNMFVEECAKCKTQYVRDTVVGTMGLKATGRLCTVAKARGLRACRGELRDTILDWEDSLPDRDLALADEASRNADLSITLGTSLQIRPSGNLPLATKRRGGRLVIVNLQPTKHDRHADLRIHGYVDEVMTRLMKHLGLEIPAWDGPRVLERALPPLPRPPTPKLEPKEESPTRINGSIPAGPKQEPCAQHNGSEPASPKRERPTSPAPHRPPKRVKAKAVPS
T1 sequence (Q96SW2 whole entry partner): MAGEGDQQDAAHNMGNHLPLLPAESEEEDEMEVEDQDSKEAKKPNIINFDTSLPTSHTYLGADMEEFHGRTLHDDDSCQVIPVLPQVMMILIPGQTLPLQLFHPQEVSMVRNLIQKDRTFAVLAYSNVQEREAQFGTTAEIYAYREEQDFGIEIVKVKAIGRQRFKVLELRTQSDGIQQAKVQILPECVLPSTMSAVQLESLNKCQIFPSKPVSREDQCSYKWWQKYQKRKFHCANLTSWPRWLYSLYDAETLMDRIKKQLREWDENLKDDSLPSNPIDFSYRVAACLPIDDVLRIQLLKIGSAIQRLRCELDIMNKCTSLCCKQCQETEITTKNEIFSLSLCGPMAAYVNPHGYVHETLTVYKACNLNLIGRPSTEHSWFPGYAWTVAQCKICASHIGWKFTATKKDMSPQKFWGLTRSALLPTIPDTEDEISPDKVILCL

Compound	Activity [1] [%]	Activity [2] [%]	Activity [3] [%]	Activity [4] [%]	Activity [5]	other results
Nc1cc(N2CCN(CCC(=O)Nc3cccc4c3C(=O)N(C3CCC(=O)NC3=O)C4=O)CC2)ccc1[N+](=O)[O-] (centres undefined)	25.6	47.2				
Nc1cc(N2CCN(CCCCCC(=O)Nc3cccc4c3C(=O)N(C3CCC(=O)NC3=O)C4=O)CC2)ccc1[N+](=O)[O-] (centres undefined)	47.8	36.8				
Nc1cc(N2CCN(CC(=O)Nc3cccc4c3C(=O)N(C3CCC(=O)NC3=O)C4=O)CC2)ccc1[N+](=O)[O-] (centres undefined)	< 5	17.4				
Nc1cc(N2CCN(CCCCC(=O)Nc3cccc4c3C(=O)N(C3CCC(=O)NC3=O)C4=O)CC2)ccc1[N+](=O)[O-] (centres undefined)	18.2	49.3				
Nc1cc(N2CCN(CCC3CCN(c4cc5c(cc4F)C(=O)N(C4CCC(=O)NC4=O)C5=O)CC3)CC2)ccc1[N+](=O)[O-] (centres undefined)			< 10	19.8		
Nc1cc(N2CCN(CC3CN(c4cc5c(cc4F)C(=O)N(C4CCC(=O)NC4=O)C5=O)C3)CC2)ccc1[N+](=O)[O-] (centres undefined)			< 10	20.6		
Nc1cc(N2CCN(CCCC3CCN(c4ccc5c(c4)C(=O)N(C4CCC(=O)NC4=O)C5=O)CC3)CC2)ccc1[N+](=O)[O-] (centres undefined)			84.9	98.9	Active	
Nc1cc(N2CCN(CCNCC3CCCN(c4ccc5c(c4)C(=O)N(C4CCC(=O)NC4=O)C5=O)C3)CC2)ccc1[N+](=O)[O-] (centres undefined)			74.2	51.6		
Nc1cc(N2CCN(CCNCCC3CCN(c4ccc5c(c4)C(=O)N(C4CCC(=O)NC4=O)C5=O)CC3)CC2)ccc1[N+](=O)[O-] (centres undefined)			49.3	73.6		
Nc1cc(N2CCN(CCNCC3C4CN(c5ccc6c(c5)C(=O)N(C5CCC(=O)NC5=O)C6=O)CC34)CC2)ccc1[N+](=O)[O-] (centres undefined)				15.4		
Nc1cc(N2CCN(CCNCCCC3CCN(c4ccc5c(c4)C(=O)N(C4CCC(=O)NC4=O)C5=O)CC3)CC2)ccc1[N+](=O)[O-] (centres undefined)			53.2	82.4	Active	
Nc1cc(N2CCN(CC3C4CN(c5cc6c(cc5F)C(=O)N(C5CCC(=O)NC5=O)C6=O)CC34)CC2)ccc1[N+](=O)[O-] (centres undefined)			89.4	95.6	Active	
Nc1cc(N2CCN(CCNCC3CCN(c4ccc5c(c4)C(=O)N(C4CCC(=O)NC4=O)C5=O)CC3)CC2)ccc1[N+](=O)[O-] (centres undefined)				< 10		
Nc1cc(N2CCN(CC3C4CN(c5ccc6c(c5)C(=O)N(C5CCC(=O)NC5=O)C6=O)CC34)CC2)ccc1[N+](=O)[O-] (centres undefined)				17.8		
Nc1cc(N2CCN(CCCC(=O)Nc3cccc4c3C(=O)N(C3CCC(=O)NC3=O)C4=O)CC2)ccc1[N+](=O)[O-] (centres undefined)	72.1	87.3				
Nc1cc(N2CCN(CCNCC3CCCN(c4cc5c(cc4F)C(=O)N(C4CCC(=O)NC4=O)C5=O)C3)CC2)ccc1[N+](=O)[O-] (centres undefined)			81.2	98.5	Active	
Nc1cc(N2CCN(CCNCCC3CCN(c4cc5c(cc4F)C(=O)N(C4CCC(=O)NC4=O)C5=O)CC3)CC2)ccc1[N+](=O)[O-] (centres undefined)				74.8	Active	
Nc1cc(N2CCN(CC3CCCN(c4ccc5c(c4)C(=O)N(C4CCC(=O)NC4=O)C5=O)C3)CC2)ccc1[N+](=O)[O-] (centres undefined)			< 10	87.1	Active	
Nc1cccc2c1C(=O)N(C1CCC(=O)NC1=O)C2=O (centres undefined)						Activity [7]: 6.5%; Activity [8]: 10.9%
Nc1cc(N2CCN(CCNCCCC3CCN(c4cc5c(cc4F)C(=O)N(C4CCC(=O)NC4=O)C5=O)CC3)CC2)ccc1[N+](=O)[O-] (centres undefined)			64.3	97.9	Active	

Second part, led by results:

Activity [1] [%]	Activity [2] [%]	Activity [3] [%]	Activity [4] [%]	Activity [5]	Compound	other results
85.7	72.3				Nc1cc(N2CCN(CCNC(=O)COc3cccc4c3C(=O)N(C3CCC(=O)NC3=O)C4=O)CC2)ccc1[N+](=O)[O-] (centres undefined)	
			< 10		Nc1cc(N2CCN(CCNCC3CCN(c4ccc5c(c4)C(=O)N(C4CCC(=O)NC4=O)C5=O)C3)CC2)ccc1[N+](=O)[O-] (centres undefined)	
		60.5	84.7	Active	Nc1cc(N2CCN(CCNCC3CCN(c4cc5c(cc4F)C(=O)N(C4CCC(=O)NC4=O)C5=O)CC3)CC2)ccc1[N+](=O)[O-] (centres undefined)	
		< 10	56.6		Nc1cc(N2CCN(CC3CCCN(c4cc5c(cc4F)C(=O)N(C4CCC(=O)NC4=O)C5=O)C3)CC2)ccc1[N+](=O)[O-] (centres undefined)	Activity [6]: inactive
	15.4				Nc1cc(N2CCN(C(=O)CNc3cccc4c3C(=O)N(C3CCC(=O)NC3=O)C4=O)CC2)ccc1[N+](=O)[O-] (centres undefined)	
		46.1	83.5		Nc1cc(N2CCN(CCNCC3CN(c4cc5c(cc4F)C(=O)N(C4CCC(=O)NC4=O)C5=O)C3)CC2)ccc1[N+](=O)[O-] (centres undefined)	
		11.2	79.6	Active	Nc1cc(N2CCN(CCC3CCN(c4ccc5c(c4)C(=O)N(C4CCC(=O)NC4=O)C5=O)CC3)CC2)ccc1[N+](=O)[O-] (centres undefined)	
27.8					Nc1cc(N2CCN(CCOCCOCCOCCOCC(=O)Nc3cccc4c3C(=O)N(C3CCC(=O)NC3=O)C4=O)CC2)ccc1[N+](=O)[O-] (centres undefined)	
		94.5	99.8	Active	Nc1cc(N2CCN(CC3CCN(c4cc5c(cc4F)C(=O)N(C4CCC(=O)NC4=O)C5=O)C3)CC2)ccc1[N+](=O)[O-] (centres undefined)	
46.7	90.6			Active	Nc1cc(N2CCN(CCOCCOCC(=O)Nc3cccc4c3C(=O)N(C3CCC(=O)NC3=O)C4=O)CC2)ccc1[N+](=O)[O-] (centres undefined)	
		66.2	78.4	Active	Nc1cc(N2CCN(CCNCC3CCN(c4cc5c(cc4F)C(=O)N(C4CCC(=O)NC4=O)C5=O)C3)CC2)ccc1[N+](=O)[O-] (centres undefined)	
32.2	15.8				Nc1cc(N2CCN(C(=O)COc3cccc4c3C(=O)N(C3CCC(=O)NC3=O)C4=O)CC2)ccc1[N+](=O)[O-] (centres undefined)	
		50.6	11		Nc1cc(N2CCN(CC3CN(c4ccc5c(c4)C(=O)N(C4CCC(=O)NC4=O)C5=O)C3)CC2)ccc1[N+](=O)[O-] (centres undefined)	
			< 10		Nc1cc(N2CCN(CCNCC3C4CN(c5cc6c(cc5F)C(=O)N(C5CCC(=O)NC5=O)C6=O)CC34)CC2)ccc1[N+](=O)[O-] (centres undefined)	
86.5	91.4			Active	Nc1cc(N2CCN(CCNC(=O)CNc3cccc4c3C(=O)N(C3CCC(=O)NC3=O)C4=O)CC2)ccc1[N+](=O)[O-] (centres undefined)	
44.9	80.8			Active	Nc1cc(N2CCN(CCOCCOCCOCC(=O)Nc3cccc4c3C(=O)N(C3CCC(=O)NC3=O)C4=O)CC2)ccc1[N+](=O)[O-] (centres undefined)	
